Test results taken from ChEMBL document CHEMBL2363022, “Malaria Box Schistosomiasis Screening Data” (2013).

Key:
Type in all cases: functional
Design in all cases: scale not given here
Schistosoma mansoni [1] = test system: Schistosoma mansoni
Schistosoma mansoni [2] = test system: Schistosoma mansoni; remark: listed apart in the source
Schistosoma mansoni [3] = test system: Schistosoma mansoni; remark: listed apart in the source

SMILES	Toxicity (Schistosoma mansoni [1])	Toxicity (Schistosoma mansoni [2])	Toxicity (Schistosoma mansoni [3])
Cc1ccc(Nc2nc(-c3ccccn3)cs2)cc1	0	0	0
Oc1ccc(-c2nc(-c3ccc4oc5ccc(-c6[nH]c(-c7ccc(O)cc7)nc6-c6ccccc6)cc5c4c3)c(-c3ccccc3)[nH]2)cc1	0	0	0
CCOc1ccc(Nc2ccnc3cc(Cl)ccc23)cc1	0	2	0
CCc1ccc(CNCC(O)c2ccccc2)cc1.Cl (centres undefined)	0	1	1
COc1cc(C(=O)Nc2ccc(-c3nc4ccccc4[nH]3)cc2)cc(OC)c1OC	0	0	0
CCOC(=O)C1=C(C)N=c2sc(=Cc3cc(Cl)ccc3O)c(=O)n2C1c1ccc(OC)cc1 (centres undefined)	0	0	0
COc1ccc2c(c1OC)C(=O)N1c3ccccc3N=C(c3ccc(C)cc3)CC21 (centres undefined)	0	0	0
COc1cccc(Nc2nc(N)c3ccccc3n2)c1.Cl	0	0	0
Cc1ccc(Cn2c(N3CCC(C(=O)NCc4cccs4)CC3)nc3ccccc32)cc1	0	0	0
Cc1c(C)n(CC(O)CNC2CCCCC2C)c2ccccc12 (centres undefined)	0	0	0
COc1ccc(-c2nc(NC(=O)CS(=O)(=O)c3ccc(F)cc3)sc2C)cc1	0	0	0
CCOC(=O)c1ccc2nc(-c3ccccc3)cc(O)c2c1	0	0	4
Oc1ccc2ccccc2c1CNc1nc2ccccc2[nH]1	0	2	0
OC(Cn1nnc2ccccc21)Cn1c2ccc(Br)cc2c2cc(Br)ccc21 (centres undefined)	0	0	0
Cc1cc(N(C)C)nc(Nc2ccc(NC(=O)Nc3ccccc3)cc2)n1	3	0	3
Cc1ccc2c(C)nc(Nc3nc(C)cc(-c4ccccc4)n3)nc2c1	0	0	0
COc1ccc(C2c3ccc4ccccc4c3Oc3ncn(CCCN(C)C)c(=N)c32)cc1 (centres undefined)	4	4	4
CCN(CC)CCCNc1ccnc2cc3ccccc3cc12	2	2	2
O=c1nc(C=Cc2ccc(Cl)cc2)oc2ccccc12	0	2	0
CCCCCCOC(=O)C1=C(C)NC(=O)NC1c1ccccc1F (centres undefined)	0	0	0
CCOC(=O)C1(Cc2ccccc2)CCN(Cc2cccc(OC)c2O)CC1	1	1	2
Cc1sc(NC(=O)c2ccco2)c(C(c2cccnc2)N2CCC(Cc3ccccc3)CC2)c1C (centres undefined)	4	1	4
COc1ccc(NC(=O)C2c3ccccc3C(=O)N(CC(C)C)C2c2cccs2)cc1 (centres undefined)	0	1	0
CCOc1cc2c(cc1OCC)C(c1cc(Cl)c(O)c(OCC)c1)NCC2 (centres undefined)	0	0	0

SMILES	Toxicity (Schistosoma mansoni [1])	Toxicity (Schistosoma mansoni [2])	Toxicity (Schistosoma mansoni [3])
COc1ccc(C2=C(c3ccc(OC)cc3)C3(c4ccccc4)C(=O)C2(c2ccccc2)C2C(=O)N(c4ccc(C)cc4)C(=O)C23)cc1 (centres undefined)	0	0	0
CCOc1cc2c(cc1OCC)C(c1cc(Cl)ccc1O)NCC2 (centres undefined)	1	0	0
CCCCCCn1c(=N)n(CC(O)COc2cccc(C)c2)c2ccccc21.Cl (centres undefined)	4	4	4
CCOc1c(Cl)cc(CNCC(O)c2ccccc2)cc1OC (centres undefined)	0	0	0
COc1ccc(Br)cc1C1Nc2ccc3ccccc3c2C2=C1C(=O)CC(c1ccccc1)C2 (centres undefined)	0	0	0
COc1ccc(CCN2C(=O)c3[nH]nc(-c4cc(Cl)c(C)cc4O)c3C2c2ccccc2F)cc1 (centres undefined)	0	0	0
Cc1cc(N2CCN(C3CCCC3)CC2)n2c(nc3ccccc32)c1C#N	0	0	0
Cc1cc(Nc2ccc(OCc3ccccc3)cc2)nc2cc(O)ccc12	3	2	4
O=C(NC1CCCCC1)C(c1cccs1)N(CCc1ccccc1)C(=O)c1ccco1 (centres undefined)	0	0	0
COc1cccc(C(=O)NC(c2ccc(C)cc2)c2cc(Cl)c3cccnc3c2O)c1 (centres undefined)	4	1	4
Fc1ccc2[nH]c3c(NCCCN4CCOCC4)ncnc3c2c1	0	0	1
COc1ccc(OC)c(C2C3=C(CC(C)(C)CC3=O)N(c3ccc(Cl)c(Cl)c3)C3=C2C(=O)CC(C)(C)C3)c1	0	1	1
CCOc1c(Cl)cc(CNC(C)C(O)c2ccccc2)cc1OC (centres undefined)	0	0	0
CC1=C(CC(=O)c2cccc([N+](=O)[O-])c2)C(=O)c2ccccc2C1=O	2	0	2
COc1ccc(CCn2c(=N)c(C(=O)NCc3cccnc3)cc3c(=O)n4cccc(C)c4nc32)cc1	0	2	4
CCOc1cc(Cl)c(C(C)NC(=O)c2ccccc2)cc1OCC (centres undefined)	0	0	0
Cc1ccc(C(=O)c2oc3ccc4c(C)cc(=O)oc4c3c2C)cc1	0	0	0
CC1CCCCN1CCCNC(=O)c1ccc2c(c1)sc1nc(-c3ccc(F)cc3)cn12 (centres undefined)	0	2	1
COc1ccc(Nc2nc(N/N=C/c3ccc(O)cc3)nc(Nc3ccc([N+](=O)[O-])cc3)n2)cc1	0	0	0
O=C(CCc1ccccc1)c1ccccc1OCC(O)CN1CCCCC1 (centres undefined)	0	1	4
COc1ccc(C2NCCc3c2[nH]c2ccccc32)cc1CN1CCN(c2ccc(F)cc2)CC1.Cl (centres undefined)	4	3	4
COc1ccc(C(=O)NC(c2ccc(Cl)cc2Cl)c2cc(Cl)c3cccnc3c2O)cc1 (centres undefined)	0	0	0
CCCCN(CCCC)S(=O)(=O)c1ccc(NC(=O)c2ccco2)cc1	0	0	0
O=c1cc(NC2CCN(CCCc3ccccc3)CC2)c2cc(Cl)ccc2o1	1	2	2
